In article PMC9182007, “Statistical Methods in the Study of Protein Binding and Its Relationship to Drug Bioavailability in Breast Milk” (Molecules, 2022):
Read-outs that look alike come from different tables or passages of the source.

Assays:
[1] = Milk-to-plasma (M/P) drug concentration ratio obtained in vivo, from literature; parameters: species or system human; details: Table S1, scale of drug penetration into milk 1-4
[2] = molecular target: T1, bovine serum albumin (BSA) (Bos taurus, UniProt P02769); assay: NP TLC on plates impregnated with bovine serum albumin; format: binding; details: for NP (Rf, BSA-impregnated NP plate): Table S3, NP plate impregnated with 2 mg/mL BSA, pH 7.4 mobile phase; for NP (Rf value from the NP plate impregnated with 2 mg/mL BSA solution): Table S8, external group
T1 construct: purchased Sigma Aldrich
T1 sequence (P02769 25-607): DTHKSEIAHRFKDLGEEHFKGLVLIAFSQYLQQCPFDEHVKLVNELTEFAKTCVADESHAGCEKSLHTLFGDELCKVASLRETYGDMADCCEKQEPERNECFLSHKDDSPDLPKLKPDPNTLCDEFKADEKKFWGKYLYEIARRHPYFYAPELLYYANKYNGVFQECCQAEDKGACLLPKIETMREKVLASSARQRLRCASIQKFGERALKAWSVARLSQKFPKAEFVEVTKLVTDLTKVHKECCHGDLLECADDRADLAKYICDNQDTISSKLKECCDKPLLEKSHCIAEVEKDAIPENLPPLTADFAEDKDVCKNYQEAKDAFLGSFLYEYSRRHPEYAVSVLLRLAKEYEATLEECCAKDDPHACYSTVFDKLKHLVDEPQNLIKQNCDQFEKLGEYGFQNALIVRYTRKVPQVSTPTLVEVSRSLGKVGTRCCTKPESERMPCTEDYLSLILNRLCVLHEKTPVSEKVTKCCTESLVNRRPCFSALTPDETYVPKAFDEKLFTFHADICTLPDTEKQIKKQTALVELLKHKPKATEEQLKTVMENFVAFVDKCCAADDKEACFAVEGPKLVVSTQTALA

[3] = molecular target: T1, bovine serum albumin (BSA); assay: RP TLC on plates impregnated with bovine serum albumin; format: binding; details: for RP (Rf, BSA-impregnated RP plate): Table S4, RP plate impregnated with 2 mg/mL BSA, pH 7.4 mobile phase; for RP (Rf value from the RP plate impregnated with 2 mg/mL BSA solution): Table S8, external group
[4] = NP TLC on non-impregnated control plates; format: physicochemical; details: for CNP (Rf, control NP plate): Table S3, non-impregnated NP plate, acetonitrile/acetate buffer pH 7.4/methanol 60:20:20; for CNP (Rf value from the non-impregnated NP plate, control): Table S8, external group
[5] = RP TLC on non-impregnated control plates; format: physicochemical; details: for CRP (Rf, control RP plate): Table S4, non-impregnated RP plate, acetonitrile/acetate buffer pH 7.4/methanol 60:20:20; for CRP (Rf value from the non-impregnated RP plate, control): Table S8, external group
[6] = HPLC on immobilized artificial membrane column (HPLCIAM); format: physicochemical; details: for log k IAM: Table S5, IAM column, pH 7.4; for k IAM: Table S5, retention factor, IAM column, phosphate buffer pH 7.4/acetonitrile 80:20; for log kIAM / kIAM: Table S9, external group
[7] = molecular target: T2, human serum albumin (HSA) (Homo sapiens, UniProt P02768); details: for k HSA: Table S5, retention factor, HSA column, pH 7.4, 25 degrees Celsius
T2 sequence (P02768 25-609): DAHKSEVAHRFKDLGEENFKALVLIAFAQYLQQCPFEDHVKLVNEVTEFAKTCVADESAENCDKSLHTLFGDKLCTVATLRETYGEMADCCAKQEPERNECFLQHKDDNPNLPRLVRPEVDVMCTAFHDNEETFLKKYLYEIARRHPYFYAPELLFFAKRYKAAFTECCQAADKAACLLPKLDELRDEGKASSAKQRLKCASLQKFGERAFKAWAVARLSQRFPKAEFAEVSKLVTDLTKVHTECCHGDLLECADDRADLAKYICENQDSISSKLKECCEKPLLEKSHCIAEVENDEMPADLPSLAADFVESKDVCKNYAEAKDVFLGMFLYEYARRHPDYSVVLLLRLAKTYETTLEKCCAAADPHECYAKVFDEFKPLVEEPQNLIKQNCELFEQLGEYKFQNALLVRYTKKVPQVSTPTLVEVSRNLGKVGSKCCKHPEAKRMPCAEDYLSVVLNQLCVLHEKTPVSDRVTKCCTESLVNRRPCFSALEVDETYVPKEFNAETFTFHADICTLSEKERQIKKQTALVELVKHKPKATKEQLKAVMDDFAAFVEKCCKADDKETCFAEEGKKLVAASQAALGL

[8] = cited from earlier work
plasma protein = details: ref DrugBank [7], cited from earlier work
[9] = ref DrugBank [7], cited from earlier work
[10] = molecular target: T2, human serum albumin (HSA); assay: in vitro; details: immobilized hsa column, pH 7.4
[11] = Table S1, milk/plasma drug concentration ratio, in vivo
[12] = Table S1, plasma protein binding given as fraction
[13] = human, immobilized hsa column, pH 7.4
[14] = Table S6, external group (n = 38)
[15] = Table S6, external group (n = 38), given as fraction
[16] = Table S6, external group, coded 1/0

SMILES | M/P code [1] | NP (Rf, BSA-impregnated NP plate) [2] | RP (Rf, BSA-impregnated RP plate) [3] | CNP (Rf, control NP plate) [4] | CRP (Rf, control RP plate) [5] | k HSA [7] | M/P [8, 11] | NP (Rf value from the NP plate impregnated with 2 mg/mL BSA solution) [2] | RP (Rf value from the RP plate impregnated with 2 mg/mL BSA solution) [3] | CNP (Rf value from the non-impregnated NP plate, control) [4] | CRP (Rf value from the non-impregnated RP plate, control) [5] | log kIAM [6] | kHSA ([7]; Table S9, external group) | M/P [8, 14] | PB (plasma protein; [15]) | CNS+/- [9, 16] | kIAM [6] | further results
CC1(C)S[C@@H]2[C@H](NC(=O)[C@H](N)c3ccc(O)cc3)C(=O)N2[C@H]1C(=O)O [amoxilcillin] | 1 (Code 1 corresponds to drugs with an M/P value <0.40—completely safe) | 0.68 | 0.98 | 0.68 | 0.99 | 0.94 | 0.028 | – | – | – | – | – | – | – | – | – | – | log k IAM [6]: -1.32; k IAM [6]: 0.05; log k HSA ([7]; Table S5, HSA, pH 7.4): -0.03; PB (plasma protein; [12]): 0.2; CNS+/- ([9]; Table S1, coded 1/0): 0
CC(C)NCC(O)COc1ccc(CCOCC2CC2)cc1 (stereo not shown) [betaxolol] | 4 (4 is M/P >1.20—dangerous) | 0.65 | 0.25 | 0.66 | 0.27 | 1.59 | 2.75 | – | – | – | – | – | – | – | – | – | – | log k HSA [7, 13]: 0.20; PB (plasma protein; [12]): 0.5; CNS+/- ([9]; Table S1, coded 1/0): 0
CCCCN1CCCCC1C(=O)Nc1c(C)cccc1C (stereo not shown) [bupivacaine] | – | – | – | – | – | – | – | 0.67 | 0.75 | 0.67 | 0.74 | 0.48 | 1.18 | 0.37 | 0.95 | 1 | – | log kHSA ([7]; Table S9, external group): 0.07
CC[C@H]1OC(=O)[C@H](C)[C@@H](O[C@H]2C[C@@](C)(OC)[C@@H](O)[C@H](C)O2)[C@H](C)[C@@H](O[C@@H]2O[C@H](C)C[C@H](N(C)C)[C@H]2O)[C@](C)(OC)C[C@@H](C)C(=O)[C@H](C)[C@@H](O)[C@]1(C)O [clarithromycin] | 1 (Code 1 corresponds to drugs with an M/P value <0.40—completely safe) | 0.99 | 0.78 | 0.99 | 0.83 | 0.82 | 0.25 | – | – | – | – | – | – | – | – | – | – | log k IAM [6]: -1.02; k IAM [6]: 0.10; log k HSA ([7]; Table S5, HSA, pH 7.4): -0.09; CNS+/- ([9]; Table S1, coded 1/0): 0
CC[C@@H](CO)NCCN[C@@H](CC)CO [ethambutol] | – | – | – | – | – | – | – | 0.21 | 0.95 | 0.19 | 0.97 | 0.34 | 1.73 | 1.00 | – | 0 | 2.18 | log kHSA [7, 13]: 0.24
CCC(C)n1ncn(-c2ccc(N3CCN(c4ccc(OCC5COC(Cn6cncn6)(c6ccc(Cl)cc6Cl)O5)cc4)CC3)cc2)c1=O (stereo not shown) [itraconazole] | – | – | – | – | – | – | – | 0.97 | 0.84 | 0.96 | 0.86 | 0.79 | 9.65 | 1.14 | 1.00 | 0 | 6.15 | chromatographic logD [10]: 0.98
O=C(c1ccccc1)c1ccc2n1CCC2C(=O)O (stereo not shown) [ketorolac] | – | – | – | – | – | – | – | 0.91 | 0.96 | 0.92 | 0.96 | 0.38 | 9.65 | 0.03 | 0.99 | 1 | 2.39 | chromatographic logD [10]: 0.98
CC[C@@H](C(N)=O)N1CCCC1=O [levetiracetam] | – | – | – | – | – | – | – | 0.92 | 0.92 | 0.92 | 0.92 | 0.21 | 0.07 | 1.00 | 0.10 | 1 | 1.62 | log kHSA ([7]; Table S9, external group): -1.16
CCC[C@@H]1C[C@@H](C(=O)N[C@@H]([C@H]2O[C@H](SC)[C@H](O)[C@@H](O)[C@H]2O)[C@@H](C)O)N(C)C1 [lincomycin] | – | – | – | – | – | – | – | 0.91 | – | 0.91 | – | 0.59 | 0.82 | 0.15 | 0.70 | 0 | 3.89 | chromatographic logD [10]: -0.08
Nc1ccc(O)c(C(=O)O)c1 [mesalazine] | – | – | – | – | – | – | – | – | 0.97 | – | 0.99 | 0.11 | 0.18 | 2.69 | 0.43 | 0 | 1.28 | chromatographic logD [10]: -0.73
CCOC(=O)C1=C(C)NC(C)=C(C(=O)OC)C1c1cccc([N+](=O)[O-])c1 (stereo not shown) [nitrendipine] | – | – | – | – | – | – | – | 0.97 | 0.86 | 0.97 | 0.86 | 0.47 | 3.55 | 0.30 | 0.99 | 0 | 2.98 | log kHSA ([7]; Table S9, external group): 0.55
NC(=O)N1c2ccccc2CC(=O)c2ccccc21 [oxcarbamazepine] | – | – | – | – | – | – | – | 0.90 | 0.91 | 0.91 | 0.91 | 0.35 | 0.40 | 0.50 | 0.40 | 1 | 2.26 | log kHSA ([7]; Table S9, external group): -0.40
C[C@]12C=CC(=O)C=C1CC[C@@H]1[C@@H]2[C@@H](O)C[C@@]2(C)[C@H]1CC[C@]2(O)C(=O)CO [prednizolone] | 1 (Code 1 corresponds to drugs with an M/P value <0.40—completely safe) | 0.94 | 0.88 | 0.94 | 0.87 | 0.52 | 0.13 | – | – | – | – | – | – | – | – | – | – | log k IAM [6]: 0.45; k IAM [6]: 2.84; log k HSA ([7]; Table S5, HSA, pH 7.4): -0.28; PB (plasma protein; [12]): 0.9
CC(N)C12CC3CC(CC(C3)C1)C2 (stereo not shown) [rimantadine] | – | – | – | – | – | – | – | 0.92 | 0.95 | 0.92 | 0.95 | 0.28 | 0.16 | 2.00 | – | 1 | 1.91 | –
CN[C@H]1CC[C@@H](c2ccc(Cl)c(Cl)c2)c2ccccc21 [sertraline] | 4 (4 is M/P >1.20—dangerous) | 0.53 | 0.48 | 0.53 | 0.49 | 13.19 | 1.85 | – | – | – | – | – | – | – | – | – | – | log k IAM [6]: 1.63; k IAM [6]: 42.89; log k HSA [7, 13]: 1.12; PB (plasma protein; [12]): 0.98
